The results in this text go back to patent US20070155827A1, “USE OF BENZO-FUSED HETEROCYCLE SULFAMIDE DERIVATIVES FOR THE TREATMENT OF DEPRESSION” (priority 2005, published 2007).

One may read the ED50 as the dose that gives a 50% effect, or the effect in half of the subjects.

This test concerns CH3/HeJ mice. The experiment in a line: Mouse Tail Suspension Assay (Acute), TST. It counts as in vivo. Particulars: p.o.; for ED50: Mus musculus, po, 7 min, 7-min session. As for the experimental part: In the tail suspension test (TST) for evaluating compounds for anti-depressant activity, mice are suspended by their tails to a metal or plastic rod using clip or scotch tape. The test is usually quite short, 5-7 min, and the amount of time the mice spend immobile is recorded either manually or with an automated device. Agents which have antidepressant activity, decrease the duration of immobility of mice in this test.
The basic apparatus for the tail suspension assay consisted of a yellow plastic chamber (91×45×10 cm) divided for four arenas 25, 20, 20 and 25 cm wide separated by yellow plastic walls 0.75 cm thick. Mice were suspended by their tails using a rubber clip (7 cm long) attached to the plastic rod that was placed on the top of a testing chamber half way through its deep dimension. Each experimental session was videotaped and analyzed for four animals in the real time by computer software (“Depression Scan” Clever Sys Inc.). The computer justification of immobility was calibrated with the use of animals dosed with lorazepam while justification of movement was calibrated with the high dose of desipramine treated animals. Control, vehicle treated animals and animals treated with Compound #8 were analyzed under the calibrated settings. The settings were adjusted separately for dark (CH3/HeJ and C57Bl/6J strains) and white mice (Balb/cJ and A/J strains). A yellow background was used for dark mice and a blue background was used to record movements of white mice.
The ability of a test compound to decrease the duration of immobility, or increase mobility was measured using the TST procedure described above. Acute treatment with clinically effective antidepressants and/or novel compounds that have potential antidepressant properties decrease the duration of immobility and at the same time increases mobility in the TST.
Data were analyzed using GraphPad Prism software (GraphPad Software, Inc. San Diego, Calif.). For the comparison of the effect of different doses for various drugs on immobility in the TST one-way analyses of variance (ANOVA) were used followed by Dunnett's multiple comparison test. […] The ED50 and Emax values were compared using two-way ANOVA and Bonferroni post-hoc test.
Positive controls included duloxetine (DLX), venlafaxine (VLX)and desipramine (DMI) which were dissolved in 0.5% methylcellulose and lorazepam (LOR) which was suspended in 0.5% of methylcellulose in water by sonication. All drugs and vehicles were administered orally (p.o.) by gavage in a volume of 10 mL/kg.
The mice were ordered 5 weeks old and at the beginning of experiment their weight was 20±5 g. Animals were housed in groups of four in plastic cages at an ambient temperature of 21° C. to 23° C. with an automated 12/12 hours light/dark cycle and access to water and a commercial rodent food ad libitum.
Each experiment consisted of seven treatment groups with four animals per group. A total of 28 animals per experiment were used. Every two consecutive experiments (1 & 2, 3 & 4, 5 & 6 and 7 & 8) were exact replicas of each other. […] One treatment group of four animals in each experiment was a vehicle treated group. In addition to the vehicle treated group, the effects of DMI at 6 mg/kg, 12 mg/kg, 30 mg/kg, 60 mg/kg and 120 mg/kg and LOR at 5 mg/kg were tested in experiments 1 and 2. […] In experiments 5 and 6 the effects of DLX at 6 mg/kg, 12 mg/kg, 30 mg/kg, 60 mg/kg, 120 mg/kg and LOR at 5 mg/kg were tested. […]

“Also recorded” adds a separate entry of the source. Where two headings read alike, the source gives them in different places.

For the compound `NS(=O)(=O)NC[C@H]1COc2cc(Cl)ccc2O1` [Compound #8, (2S)-(−)-N-(6-Chloro-2,3-dihydro-benzo[1,4]dioxin-2-ylmethyl)-sulfamide], the 50% effective dose (ED50) runs as follows: (read-out: Immobility ED50) 5.6 mg/kg; (read-out: Mobility ED50) 3.6 ± 2.9 mg/kg. Further, the “effect on immobility and mobility time in TST” value (7-min testing session) was “decreased immobility time and increased mobility time; also recorded: antidepressant-like activity”.
